Assay results as given in US20220249463A1, “METHODS OF ALTERING CARDIAC REMODELING USING COMPOUNDS THAT PROMOTE GLUCOSE OXIDATION” (IMBRIA PHARMACEUTICALS, INC., priority 2019, published 2022).

Test: Stability of CV-8972 in aqueous solution at different concentrations and pH
Type: physicochemical
Description: The stability of CV-8972 was analyzed. Aqueous samples containing CV-8972 at different concentrations and pH were incubated for various periods and analyzed.
Form A of CV-8972 were analyzed for stability in aqueous solution. Aqueous samples containing CV-8972 at different concentrations and pH were incubated for various periods and analyzed.

[1] = 289-MBA-15-A 2 mg/mL pH 6 (Form B), 22 hrs, pH 6.7
[2] = 289-MBA-15-A 2 mg/mL pH 7 (Form B), 0 hrs, pH 6.5
[3] = 289-MBA-15-A 2 mg/mL pH 7 (Form B), 1 hrs, pH 6.6
[4] = 289-MBA-15-A 2 mg/mL pH 7 (Form B), 4 hrs, pH 6.5
[5] = 289-MBA-15-A 10 mg/mL pH 6 (Form B), 0 hrs, pH 6
[6] = 289-MBA-15-A 10 mg/mL pH 6 (Form B), 1 hrs, pH 6.1
[7] = 289-MBA-15-A 10 mg/mL pH 6 (Form B), 4 hrs, pH 6
[8] = 289-MBA-15-A 10 mg/mL pH 6 (Form B), 6 hrs, pH 5.9
[9] = 289-MBA-15-A 10 mg/mL pH 6 (Form B), 22 hrs, pH 5.9
[10] = 289-MBA-15-A 10 mg/mL pH 7 (Form B), 0 hrs, pH 7.4
[11] = 289-MBA-15-A 10 mg/mL pH 7 (Form B), 1 hrs, pH 7.4
[12] = 289-MBA-15-A 10 mg/mL pH 7 (Form B), 4 hrs, pH 7.4
[13] = 289-MBA-15-A 10 mg/mL pH 7 (Form B), 6 hrs, pH 7.3
[14] = Form A, aqueous, 4.2 mg/mL, Initial pH = 2.3, 0 hrs
[15] = Form A, aqueous, 4.2 mg/mL, Initial pH = 2.3, 1 hrs
[16] = Form A, aqueous, 4.2 mg/mL, Initial pH = 2.3, 2 hrs
[17] = Form A, aqueous, 4.2 mg/mL, Initial pH = 2.3, 6 hrs
[18] = Form A, aqueous, 12.5 mg/mL, Initial pH = 2.1, 0 hrs
[19] = Form A, aqueous, 12.5 mg/mL, Initial pH = 2.1, 1 hrs
[20] = Form A, aqueous, 12.5 mg/mL, Initial pH = 2.1, 2 hrs
[21] = Form A, aqueous, 12.5 mg/mL, Initial pH = 2.1, 6 hrs
[22] = Form A, aqueous, 21 mg/mL, Initial pH = 2.0, 0 hrs
[23] = Form A, aqueous, 21 mg/mL, Initial pH = 2.0, 1 hrs
[24] = Form A, aqueous, 21 mg/mL, Initial pH = 2.0, 2 hrs
[25] = Form A, aqueous, 21 mg/mL, Initial pH = 2.0, 6 hrs

Retention Time 2.2 [1]: 7.72 | Retention Time 2.6 [1]: 1.13 | Retention Time 4.2 [1]: 0.86 | Retention Time 4.7 [1]: 1.14 | Retention Time 5.6 [1]: 89.15 | Retention Time 2.2 [2]: 1.62 | Retention Time 4.2 [2]: 0.9 | Retention Time 5.6 [2]: 97.48 | Decrease in purity of CV-8972 between time points [3]: 2.02 | Retention Time 2.2 [3]: 3.16 | Retention Time 4.2 [3]: 0.89 | Retention Time 4.7 [3]: 0.49 | Retention Time 5.6 [3]: 95.46 | Decrease in purity of CV-8972 between time points [4]: 1.54 | Retention Time 2.2 [4]: 4.27 | Retention Time 2.6 [4]: 0.53 | Retention Time 4.2 [4]: 0.66 | Retention Time 4.7 [4]: 0.62 | Retention Time 5.6 [4]: 93.92 | Retention Time 2.2 [5]: 3.3 | Retention Time 2.6 [5]: 0.6 | Retention Time 4.2 [5]: 0.26 | Retention Time 4.7 [5]: 0.48 | Retention Time 5.6 [5]: 95.36 | Decrease in purity of CV-8972 between time points [6]: 0.55 | Retention Time 2.2 [6]: 3.76 | Retention Time 2.6 [6]: 0.65 | Retention Time 4.2 [6]: 0.25 | Retention Time 4.7 [6]: 0.53 | Retention Time 5.6 [6]: 94.81 | Decrease in purity of CV-8972 between time points [7]: 0.12 | Retention Time 2.2 [7]: 3.97 | Retention Time 2.6 [7]: 0.59 | Retention Time 4.2 [7]: 0.19 | Retention Time 4.7 [7]: 0.56 | Retention Time 5.6 [7]: 94.69 | Decrease in purity of CV-8972 between time points [8]: 0.3 | Retention Time 2.2 [8]: 4.3 | Retention Time 2.6 [8]: 0.54 | Retention Time 4.2 [8]: 0.17 | Retention Time 4.7 [8]: 0.6 | Retention Time 5.6 [8]: 94.39 | Decrease in purity of CV-8972 between time points [9]: 0.46 | Retention Time 2.2 [9]: 4.53 | Retention Time 2.6 [9]: 0.69 | Retention Time 4.2 [9]: 0.19 | Retention Time 4.7 [9]: 0.65 | Retention Time 5.6 [9]: 93.93 | Retention Time 2.2 [10]: 6.2 | Retention Time 2.6 [10]: 1.16 | Retention Time 4.2 [10]: 0.27 | Retention Time 4.7 [10]: 0.87 | Retention Time 5.6 [10]: 91.5 | Decrease in purity of CV-8972 between time points [11]: 5.32 | Retention Time 2.2 [11]: 10.47 | Retention Time 2.6 [11]: 1.65 | Retention Time 4.2 [11]: 0.25 | Retention Time 4.7 [11]: 1.44 | Retention Time 5.6 [11]: 86.18 | Decrease in purity of CV-8972 between time points [12]: 3.82 | Retention Time 2.2 [12]: 13.64 | Retention Time 2.6 [12]: 1.93 | Retention Time 4.2 [12]: 0.19 | Retention Time 4.7 [12]: 1.89 | Retention Time 5.6 [12]: 82.36 | Decrease in purity of CV-8972 between time points [13]: 2.99 | Retention Time 2.2 [13]: 15.66 | Retention Time 2.6 [13]: 2.57 | Retention Time 4.2 [13]: 0.2 | Retention Time 4.7 [13]: 0.2 | Retention Time 5.6 [13]: 79.37 | Retention Time 3.9 [14]: 5.35 | Retention Time 5.4 [14]: 94.65 | % change from t0 of RT 5.4 [15]: 1.41% | Retention Time 3.9 [15]: 4.02 | Retention Time 5.4 [15]: 95.98 | % change from t0 of RT 5.4 [16]: −3.66% | Amount of peak at retention time 1.9 [16]: 3.72 | Retention Time 3.9 [16]: 5.09 | Retention Time 5.4 [16]: 91.19 | % change from t0 of RT 5.4 [17]: −10.21% | Amount of peak at retention time 1.9 [17]: 9.71 | Retention Time 3.9 [17]: 5.3 | Retention Time 5.4 [17]: 84.99 | Retention Time 3.9 [18]: 1.79 | Retention Time 5.4 [18]: 98.21 | % change from t0 of RT 5.4 [19]: −1.02% | Amount of peak at retention time 1.9 [19]: 1.38 | Retention Time 3.9 [19]: 1.41 | Retention Time 5.4 [19]: 97.21 | % change from t0 of RT 5.4 [20]: −2.35% | Amount of peak at retention time 1.9 [20]: 2.43 | Retention Time 3.9 [20]: 1.67 | Retention Time 5.4 [20]: 95.9 | % change from t0 of RT 5.4 [21]: −8.79% | Retention Time 2.2 [21]: 1.04 | Retention Time 3.9 [21]: 1.74 | Retention Time 5.4 [21]: 89.58 | Retention Time 3.9 [22]: 1.12 | Retention Time 5.4 [22]: 98.88 | % change from t0 of RT 5.4 [23]: −0.86% | Amount of peak at retention time 1.9 [23]: 1.03 | Retention Time 3.9 [23]: 0.94 | Retention Time 5.4 [23]: 98.03 | % change from t0 of RT 5.4 [24]: −1.79% | Amount of peak at retention time 1.9 [24]: 1.9 | Retention Time 3.9 [24]: 1 | Retention Time 5.4 [24]: 97.11 | % change from t0 of RT 5.4 [25]: −6.78% | Retention Time 2.2 [25]: 0.83 | Retention Time 3.9 [25]: 0.96 | Retention Time 5.4 [25]: 92.18
SMILES: COc1ccc(CN2CCN(CCOC(=O)c3cccnc3)CC2)c(OC)c1OC [CV-8972, 2-(4-(2,3,4-trimethoxybenzyl)piperazin-1-yl)ethyl nicotinate]
